ChEMBL document CHEMBL3045624, “Quantitative structureactivity relationships for estimating the aryl hydrocarbon receptor binding affinities of resveratrol derivatives and the antioxidant activities of hydroxystilbenes” (Med Chem Res, 2010)
In brackets after ≈: the same amount, converted by molar mass.

Key:
[1] = Antioxidant activity assessed as inhibition rate constant in AAPH-induced human LDL peroxidation; format: functional
[2] = Antioxidant activity assessed as time required to inhibit Cu2+-induced human LDL peroxidation; format: functional
[3] = Antioxidant activity assessed as time required to inhibit AAPH-induced human LDL peroxidation; format: functional
[4] = Antioxidant activity in CTAB micelles assessed as time required to inhibit AAPH-induced linoleic acid peroxidation; format: functional
[5] = Antioxidant activity in CTAB micelles assessed as inhibition rate constant for AAPH-induced linoleic acid peroxidation; format: functional
[6] = Antioxidant activity in SDS micelles assessed as time required to inhibit AAPH-induced linoleic acid peroxidation; format: functional
[7] = Antioxidant activity in SDS micelles assessed as inhibition rate constant for AAPH-induced linoleic acid peroxidation; format: functional
[8] = tested on: Radical scavenging activity; test: Antioxidant activity assessed as inhibition of DPPH free radical formation; format: functional; parameters: concentration or dose not given beside the values; conditions: dose or concentration not given here
[9] = Antioxidant activity assessed as time required to induce lipid oxidation by Rancimat method; format: functional
Liver microsome = test: Antioxidant activity in Rattus norvegicus Wistar (rat) liver microsomes assessed as inhibition of Fe2+/ascorbate-induced lipid peroxidation incubated for 10 min prior to Fe2+/ascorbate induction measured after 60 min by TBARS assay; format: functional
[10] = Antioxidant activity assessed as inhibition rate constant for reaction with peroxyl radicals; format: functional
[11] = Antioxidant activity assessed as decrease in initial quantity of DPPH measured up to 6 hr by spectrophotometric analysis; format: functional
[12] = Antioxidant activity assessed as superoxide scavenging activity in riboflavin light-NBT system; format: functional
[13] = molecular target: T1, Aryl hydrocarbon receptor (Homo sapiens, UniProt P35869); test: Binding affinity to aryl hydrocarbon receptor (unknown origin); conditions: read-out: Ki(app)
T1 sequence (P35869 whole entry): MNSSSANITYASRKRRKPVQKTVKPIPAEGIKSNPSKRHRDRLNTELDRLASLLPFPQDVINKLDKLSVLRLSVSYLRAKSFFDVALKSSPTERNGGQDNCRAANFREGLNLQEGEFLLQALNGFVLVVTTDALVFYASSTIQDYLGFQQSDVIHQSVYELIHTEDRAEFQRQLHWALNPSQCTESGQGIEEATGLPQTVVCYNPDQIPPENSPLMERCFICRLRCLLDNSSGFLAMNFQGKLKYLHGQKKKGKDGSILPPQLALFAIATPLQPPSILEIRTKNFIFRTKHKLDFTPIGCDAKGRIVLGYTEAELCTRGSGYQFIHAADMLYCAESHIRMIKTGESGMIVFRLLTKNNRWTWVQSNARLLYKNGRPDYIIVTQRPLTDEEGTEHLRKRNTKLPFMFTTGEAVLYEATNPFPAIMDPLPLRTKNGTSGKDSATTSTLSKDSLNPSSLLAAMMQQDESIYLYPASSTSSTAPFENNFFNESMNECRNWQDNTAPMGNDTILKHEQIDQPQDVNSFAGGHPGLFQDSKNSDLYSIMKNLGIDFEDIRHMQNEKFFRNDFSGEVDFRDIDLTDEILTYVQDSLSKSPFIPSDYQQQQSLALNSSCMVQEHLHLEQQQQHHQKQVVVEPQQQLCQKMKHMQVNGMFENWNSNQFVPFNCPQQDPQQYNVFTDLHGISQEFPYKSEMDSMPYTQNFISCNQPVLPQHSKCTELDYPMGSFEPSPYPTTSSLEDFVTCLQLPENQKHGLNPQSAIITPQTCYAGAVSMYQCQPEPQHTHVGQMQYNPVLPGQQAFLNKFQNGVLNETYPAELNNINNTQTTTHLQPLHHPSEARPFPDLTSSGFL

## Oc1ccc(/C=C/c2ccc(O)cc2)cc1
[1]
  INH: 8.2 ×10⁵ L/mol/s
[2]
  TIME: 1.28 h
[3]
  TIME: 0.308 h
[4]
  TIME: 2.6 ×10³ s
[5]
  INH: 0.8 ×10⁴ L/mol/s
[6]
  TIME: 3.2 ×10³ s
[7]
  INH: 1.4 ×10⁴ L/mol/s

## Oc1ccc(/C=C/c2cc(O)c(O)c(O)c2)cc1
[8]
  inhibition: 92.9%
[9]
  TIME: 43 h

## Oc1cc(O)cc(/C=C/c2ccccc2)c1
[8]
  inhibition: 29.8%
[9]
  TIME: 2.3 h
[1]
  INH: 3.3 ×10⁵ L/mol/s
[2]
  TIME: 0.717 h
[3]
  TIME: 0.362 h
[4]
  TIME: 2.4 ×10³ s
[5]
  INH: 0.5 ×10⁴ L/mol/s
[6]
  TIME: 1.5 ×10³ s
[7]
  INH: 1.7 ×10⁴ L/mol/s

## Oc1ccc(/C=C/c2ccccc2)c(O)c1
[1]
  INH: 6.2 ×10⁵ L/mol/s
[2]
  TIME: 0.883 h
[3]
  TIME: 0.292 h

## COc1cc(/C=C/c2ccc(O)cc2)cc(OC)c1 [PTEROSTILBENE]
Liver microsome
  EC50: 355 µM
[10]
  INH: 13 ×10⁴ L/mol/s
[11]
  EC50: 30.1 µM

## Oc1ccc(/C=C\c2cc(O)cc(O)c2)cc1 [CIS-RESVERATROL]
Liver microsome
  EC50: 241 µM
[10]
  INH: 7.4 ×10⁴ L/mol/s

## Oc1cc(/C=C/c2cc(O)c(O)c(Br)c2)cc(O)c1O
[12]
  IC50: 8.1 µg/mL (≈ 23.9 µM)

## Oc1ccc(/C=C/c2ccc(O)c(O)c2)cc1
[1]
  INH: 4.2 ×10⁵ L/mol/s
[2]
  TIME: 1.75 h
[3]
  TIME: 0.62 h
[4]
  TIME: 5.1 ×10³ s
[6]
  TIME: 7.2 ×10³ s

## Oc1cc(/C=C/c2cc(O)c(O)c(O)c2)cc(O)c1O
[12]
  IC50: 0.9 µg/mL (≈ 3.26 µM)

## O=C(/C=C/c1ccc(O)c(O)c1)Oc1cc(O)cc(/C=C/c2ccc(O)cc2)c1
[12]
  IC50: 9.2 µg/mL (≈ 23.6 µM)

## CCCCOc1ccc(/C=C\c2cc(OC)cc(OC)c2)cc1
[13]
  Ki: 0.012 µM

## COc1cc(/C=C/c2cc(C(C)(C)C)c(O)c(C(C)(C)C)c2)cc(OC)c1
[10]
  INH: 6.8 ×10⁴ L/mol/s

## Oc1cc(O)cc(/C=C/c2cc(O)cc(O)c2)c1
[8]
  inhibition: 46.5%
[9]
  TIME: 3.7 h

## COc1cc(/C=C\c2cc(C(C)(C)C)c(O)c(C(C)(C)C)c2)cc(OC)c1
[10]
  INH: 2.3 ×10⁴ L/mol/s

## Oc1cc(O)cc(/C=C/c2ccc(O)c(O)c2)c1
[8]
  inhibition: 67.1%
[9]
  TIME: 60.3 h

## Oc1ccc(/C=C/c2ccccc2)cc1
[4]
  TIME: 1.7 ×10³ s
[5]
  INH: 1 ×10⁴ L/mol/s
[6]
  TIME: 2.1 ×10³ s
[7]
  INH: 1.2 ×10⁴ L/mol/s

## Oc1ccc(/C=C/c2ccc(O)cc2O)cc1
[1]
  INH: 3.3 ×10⁵ L/mol/s
[2]
  TIME: 0.717 h
[3]
  TIME: 0.458 h

## CCOc1ccc(/C=C\c2cc(OC)cc(OC)c2)cc1
[13]
  Ki: 0.012 µM

## Oc1ccc(/C=C/c2ccc(O)c(O)c2)cc1O
[1]
  INH: 3.7 ×10⁵ L/mol/s
[2]
  TIME: 1.78 h
[3]
  TIME: 0.85 h

## COc1cc(/C=C/c2ccc(O)c(OC)c2)cc(OC)c1
[10]
  INH: 10 ×10⁴ L/mol/s

## Oc1cc(O)cc(/C=C/c2cc(O)c(O)c(O)c2)c1
[8]
  inhibition: 92.9%
[9]
  TIME: 48.1 h

## COc1ccc(/C=C/c2cc(O)cc(O)c2)cc1 [RESVERATROL 4'-METHYL ETHER]
Liver microsome
  EC50: 661 µM
[11]
  EC50: 48.6 µM

## COc1cc(/C=C/c2ccc(O)c(O)c2)cc(OC)c1
[10]
  INH: 110 ×10⁴ L/mol/s

## COc1cc(/C=C\c2ccc(O)cc2)cc(OC)c1
[10]
  INH: 6.3 ×10⁴ L/mol/s

## COc1ccc(/C=C\c2cc(OC)cc(OC)c2)cc1 [8Z-3,4',5-TRIMETHOXYSTILBENE]
[13]
  Ki: 0.012 µM

## COc1cc(/C=C/c2ccc(O)c(OC)c2)ccc1O
[1]
  INH: 4.1 ×10⁵ L/mol/s
[2]
  TIME: 1.47 h
[3]
  TIME: 0.85 h

## O=C(/C=C/c1cc(O)c(O)c(O)c1)Oc1cc(O)cc(/C=C/c2ccc(O)cc2)c1
[12]
  IC50: 10 µg/mL (≈ 24.6 µM)

## Oc1ccc(/C=C/c2ccccc2)cc1O
[1]
  INH: 4.9 ×10⁵ L/mol/s
[2]
  TIME: 1.77 h
[3]
  TIME: 0.65 h
[4]
  TIME: 4.1 ×10³ s
[5]
  INH: 0.9 ×10⁴ L/mol/s
[6]
  TIME: 4.9 ×10³ s
[7]
  INH: 2.9 ×10⁴ L/mol/s

## Clc1ccc(/C=C\c2cc(Cl)cc(Cl)c2)cc1
[13]
  Ki: 0.012 µM

## COc1cc(/C=C\c2ccc(O)c(OC)c2)cc(OC)c1
[10]
  INH: 5.7 ×10⁴ L/mol/s

## Oc1cc(/C=C/c2ccccc2)cc(O)c1O
[4]
  TIME: 2.9 ×10³ s
[5]
  INH: 1.3 ×10⁴ L/mol/s
[6]
  TIME: 2.4 ×10³ s
[7]
  INH: 3.1 ×10⁴ L/mol/s

## Oc1ccc(/C=C/c2cc(O)cc(O)c2)cc1 [RESVERATROL]
Liver microsome
  EC50: 135 µM
[8]
  inhibition: 55.1%
[9]
  TIME: 12.3 h
[1]
  INH: 4.4 ×10⁵ L/mol/s
[2]
  TIME: 0.967 h
[3]
  TIME: 0.397 h
[10]
  INH: 14 ×10⁴ L/mol/s
[12]
  IC50: 106 µg/mL (≈ 464 µM)
[4]
  TIME: 2.7 ×10³ s
[5]
  INH: 0.7 ×10⁴ L/mol/s
[6]
  TIME: 3.1 ×10³ s
[7]
  INH: 1.3 ×10⁴ L/mol/s

## COc1ccc(/C=C\c2cc(Cl)cc(Cl)c2)cc1
[13]
  Ki: 0.012 µM

## COc1cc(/C=C\c2ccc(O)c(O)c2)cc(OC)c1
[10]
  INH: 76 ×10⁴ L/mol/s

## COc1cc(/C=C/c2cc(O)c(O)c(C(C)(C)C)c2)cc(OC)c1
[10]
  INH: 240 ×10⁴ L/mol/s

## O=C(Oc1cc(O)cc(/C=C/c2ccc(O)cc2)c1)c1cc(O)c(O)c(O)c1
[12]
  IC50: 16 µg/mL (≈ 42.1 µM)

## Oc1ccc(/C=C/c2cc(O)c(O)c(O)c2)cc1O
[12]
  IC50: 3 µg/mL (≈ 11.5 µM)
